In ChEMBL document CHEMBL1201862, “PubChem BioAssay data set” (2004):
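Each compound was tested at five concentrations against cells in 96-well plates for 48 hours. GI50 is the concentration that inhibits growth by half.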 Active and inactive are the calls of the source. No stated cut-off is given here; in the data, active = GI50 up to about 1.1 µM and inactive = higher.

Tests used:
Experiment in all cases: inhibition of tumour cell growth, NCI panel, 48 h
MOLT-4 = system: MOLT-4
OVCAR-4 = system: OVCAR-4
MDA-MB-231 = system: MDA-MB-231
NCI/ADR-RES = system: NCI/ADR-RES
MDA-MB-435 = system: MDA-MB-435
M14 = system: M14
Malme-3M = system: Malme-3M
UACC-257 = system: UACC-257
HL-60 = system: HL-60
786-0 = system: 786-0
COLO 205 = system: COLO 205
A549 = system: A549
NCI-H226 = system: NCI-H226
UO-31 = system: UO-31
PC-3 = system: PC-3
RPMI-8226 = system: RPMI-8226
SK-OV-3 = system: SK-OV-3
MDA-N = system: MDA-N
K562 = system: K562
HOP-92 = system: HOP-92

Structure (SMILES) | GI50 (MOLT-4) | GI50 (OVCAR-4) | GI50 (MDA-MB-231) | GI50 (NCI/ADR-RES) | GI50 (MDA-MB-435) | GI50 (M14) | GI50 (Malme-3M) | GI50 (UACC-257) | GI50 (HL-60) | GI50 (786-0) | GI50 (COLO 205) | GI50 (A549) | GI50 (NCI-H226) | GI50 (UO-31) | GI50 (PC-3) | GI50 (RPMI-8226) | GI50 (SK-OV-3) | GI50 (MDA-N) | GI50 (K562) | GI50 (HOP-92)
Cc1cc(=O)oc2c(C)c3oc(CBr)c(Br)c3cc12 | 8.59 µM (inactive) | 28.5 µM (inactive) | 87.3 µM (inactive) | 33.7 µM (inactive) | 43.3 µM (inactive) | 22 µM (inactive) | > 10 µM (inactive) | 54.5 µM (inactive) | 85.1 µM (inactive) | 14.4 µM (inactive) | 28.2 µM (inactive) | 17.4 µM (inactive) | 30 µM (inactive) | 18.6 µM (inactive) | 40.4 µM (inactive) | 16.3 µM (inactive) | 43.3 µM (inactive) | 30.4 µM (inactive) | 19.6 µM (inactive) | –
COc1ccc(CCN2CCN(CCCc3ccccc3)CC2)cc1 | 92 µM (inactive) | 71.6 µM (inactive) | > 100 µM (inactive) | 83 µM (inactive) | > 100 µM (inactive) | 86.9 µM (inactive) | > 100 µM (inactive) | 77.3 µM (inactive) | > 100 µM (inactive) | > 100 µM (inactive) | 22.9 µM (inactive) | > 100 µM (inactive) | > 100 µM (inactive) | 55.6 µM (inactive) | > 100 µM (inactive) | > 100 µM (inactive) | > 100 µM (inactive) | > 100 µM (inactive) | 38.6 µM (inactive) | –
COC1OC2COC(C)(C)OC2C2OC(C)(C)OC12 (stereo unspecified) | 25.3 µM (inactive) | 22.2 µM (inactive) | 16 µM (inactive) | 63.8 µM (inactive) | > 100 µM (inactive) | > 100 µM (inactive) | > 100 µM (inactive) | 63.2 µM (inactive) | – | 18.6 µM (inactive) | 46.5 µM (inactive) | 85.1 µM (inactive) | 23.8 µM (inactive) | > 100 µM (inactive) | 80.5 µM (inactive) | 17 µM (inactive) | 78.2 µM (inactive) | 69.5 µM (inactive) | 33.7 µM (inactive) | –
Oc1cc(CF)nc(S)n1 | > 100 µM (inactive) | > 100 µM (inactive) | > 100 µM (inactive) | > 100 µM (inactive) | > 100 µM (inactive) | > 100 µM (inactive) | > 100 µM (inactive) | > 100 µM (inactive) | – | > 100 µM (inactive) | – | > 100 µM (inactive) | > 100 µM (inactive) | > 100 µM (inactive) | > 100 µM (inactive) | – | – | > 100 µM (inactive) | > 100 µM (inactive) | > 100 µM (inactive)
Clc1ccc(Cl)c(Nc2ccnc(SCc3ccccc3)n2)c1 | > 100 µM (inactive) | > 100 µM (inactive) | > 100 µM (inactive) | > 100 µM (inactive) | > 100 µM (inactive) | 70 µM (inactive) | > 100 µM (inactive) | > 100 µM (inactive) | – | > 100 µM (inactive) | > 100 µM (inactive) | > 100 µM (inactive) | – | > 100 µM (inactive) | > 100 µM (inactive) | 99.8 µM (inactive) | > 100 µM (inactive) | > 100 µM (inactive) | > 100 µM (inactive) | > 100 µM (inactive)
N#CCC1C2CC3C(C2=O)C13 (stereo unspecified) | > 100 µM (inactive) | > 100 µM (inactive) | > 100 µM (inactive) | > 100 µM (inactive) | > 100 µM (inactive) | > 100 µM (inactive) | > 100 µM (inactive) | > 100 µM (inactive) | – | > 100 µM (inactive) | > 100 µM (inactive) | > 100 µM (inactive) | > 100 µM (inactive) | > 100 µM (inactive) | > 100 µM (inactive) | > 100 µM (inactive) | > 100 µM (inactive) | > 100 µM (inactive) | > 100 µM (inactive) | > 100 µM (inactive)
CN(C)c1c(C2OC(CO)C(O)C2O)c(=O)c1=O (stereo unspecified) | > 100 µM (inactive) | > 100 µM (inactive) | > 100 µM (inactive) | > 100 µM (inactive) | > 100 µM (inactive) | > 100 µM (inactive) | > 100 µM (inactive) | > 100 µM (inactive) | – | > 100 µM (inactive) | – | > 100 µM (inactive) | > 100 µM (inactive) | > 100 µM (inactive) | > 100 µM (inactive) | > 100 µM (inactive) | > 100 µM (inactive) | > 100 µM (inactive) | > 100 µM (inactive) | > 100 µM (inactive)
COc1nc2ccc(CNc3ccc(C(=O)O)cc3)cc2nc1OC | > 10 µM (inactive) | > 10 µM (inactive) | > 10 µM (inactive) | > 10 µM (inactive) | > 10 µM (inactive) | > 10 µM (inactive) | > 10 µM (inactive) | > 10 µM (inactive) | > 10 µM (inactive) | > 10 µM (inactive) | > 10 µM (inactive) | > 10 µM (inactive) | > 10 µM (inactive) | – | > 10 µM (inactive) | > 10 µM (inactive) | > 10 µM (inactive) | > 10 µM (inactive) | > 10 µM (inactive) | –
NCCCNc1ccc2c3c(nn2CCNCCO)-c2c(O)ccc(O)c2C(=O)c13 | 0.21 µM (active) | 3.93 µM (inactive) | 3.84 µM (inactive) | 29.7 µM (inactive) | 9.71 µM (inactive) | 3.2 µM (inactive) | 1.51 µM (inactive) | 5.81 µM (inactive) | – | 2.38 µM (inactive) | 1.44 µM (inactive) | – | 0.406 µM (active) | – | 2.84 µM (inactive) | 1.2 µM (inactive) | 1.28 µM (inactive) | 2.75 µM (inactive) | – | –
Cc1cc2nc3ccccc3n2c2ccccc12 | > 10 µM (inactive) | > 10 µM (inactive) | > 10 µM (inactive) | > 10 µM (inactive) | > 10 µM (inactive) | > 10 µM (inactive) | > 10 µM (inactive) | > 10 µM (inactive) | > 10 µM (inactive) | > 10 µM (inactive) | > 10 µM (inactive) | > 10 µM (inactive) | 6.17 µM (inactive) | – | > 10 µM (inactive) | > 10 µM (inactive) | > 10 µM (inactive) | > 10 µM (inactive) | > 10 µM (inactive) | –
COC(=O)c1cc(C(=O)OC)cc(-c2ccc3c(c2)-c2nc4c(c(-c5ccc(OC)cc5)c2CC3)CCc2ccc(-c3cc(C(=O)OC)cc(C(=O)OC)c3)cc2-4)c1 | – | > 100 µM (inactive) | > 100 µM (inactive) | > 100 µM (inactive) | > 100 µM (inactive) | > 100 µM (inactive) | > 100 µM (inactive) | > 100 µM (inactive) | – | > 100 µM (inactive) | > 100 µM (inactive) | > 100 µM (inactive) | > 100 µM (inactive) | > 100 µM (inactive) | > 100 µM (inactive) | > 100 µM (inactive) | > 100 µM (inactive) | > 100 µM (inactive) | 0.061 µM (active) | > 100 µM (inactive)
CCOC(=O)c1nc[nH]c1/N=N/N(C)N | 44.2 µM (inactive) | > 100 µM (inactive) | > 100 µM (inactive) | > 100 µM (inactive) | > 100 µM (inactive) | > 100 µM (inactive) | > 100 µM (inactive) | > 100 µM (inactive) | 29.2 µM (inactive) | 84.7 µM (inactive) | 36.6 µM (inactive) | > 100 µM (inactive) | > 100 µM (inactive) | > 100 µM (inactive) | > 100 µM (inactive) | 46.6 µM (inactive) | > 100 µM (inactive) | > 100 µM (inactive) | > 10 µM (inactive) | –
O=C(NC/C=C/Br)NC1CCNc2ccccc21 (stereo unspecified) | 56.8 µM (inactive) | 72.1 µM (inactive) | 41 µM (inactive) | 32.1 µM (inactive) | 31.6 µM (inactive) | 17.7 µM (inactive) | 31.6 µM (inactive) | 21.8 µM (inactive) | 32.1 µM (inactive) | 26.6 µM (inactive) | 18.7 µM (inactive) | 32.2 µM (inactive) | 38.8 µM (inactive) | 27.8 µM (inactive) | 37.3 µM (inactive) | 27.2 µM (inactive) | > 100 µM (inactive) | 31.9 µM (inactive) | 30.1 µM (inactive) | –
OC(C1CCCCCCCCCC1)C(O)C1CCCCCCCCCC1 (stereo unspecified) | 37.1 µM (inactive) | > 100 µM (inactive) | > 100 µM (inactive) | > 100 µM (inactive) | > 100 µM (inactive) | > 100 µM (inactive) | > 100 µM (inactive) | > 100 µM (inactive) | > 100 µM (inactive) | > 100 µM (inactive) | > 100 µM (inactive) | > 100 µM (inactive) | > 100 µM (inactive) | > 100 µM (inactive) | > 100 µM (inactive) | > 100 µM (inactive) | > 100 µM (inactive) | > 100 µM (inactive) | 55.1 µM (inactive) | –
O=C(c1ccccc1)n1cc(-c2ccccc2)c2c(=O)nc[nH]c21 | > 100 µM (inactive) | > 100 µM (inactive) | > 100 µM (inactive) | > 100 µM (inactive) | > 100 µM (inactive) | > 100 µM (inactive) | > 100 µM (inactive) | > 100 µM (inactive) | – | > 100 µM (inactive) | > 100 µM (inactive) | > 100 µM (inactive) | > 100 µM (inactive) | > 100 µM (inactive) | > 100 µM (inactive) | > 100 µM (inactive) | > 100 µM (inactive) | > 100 µM (inactive) | – | > 100 µM (inactive)
